Values of other authors in patent US4665086A, “Method for minimizing disturbances in circadian rhythms of bodily performance and function” (priority 1983, dated 1987).

Key:
[1] = tested on: endogenous melatonin secretion; details: beta blocker; cited from earlier work
melatonin synthesis = details: rats, exogenous administration; cited from earlier work
laboratory animals = details: chronic administration, cited from earlier work; for effect on rhythm (splitting): monoamine oxidase inhibitors

Row | Structure (SMILES) | effect on rhythm (splitting) (laboratory animals) | effect on unentrained, free-running period (laboratory animals) | further results
1 | CC(C)NC[C@H](O)COc1cccc2ccccc12 (racemic) [PROPANOLOL] | – | – | effect on endogenous melatonin secretion [1]: can inhibit endogenous melatonin secretion
2 | N[C@@H](Cc1ccc(O)c(O)c1)C(=O)O [L-dopa] | – | – | effect on melatonin synthesis (melatonin synthesis): stimulates melatonin synthesis
3 | C#CCN(C)CCCOc1ccc(Cl)cc1Cl [clorgyline] | split the rhythm | lengthens the unentrained, free-running period | –
4 | [2H]O[2H] [heavy water (D2 O)] | – | lengthens the unentrained, free-running period | –
5 | CN(C)CCCN1c2ccccc2CCc2ccccc21 [imipramine] | split the rhythm | lengthens the unentrained, free-running period | –
6 | [Li] [lithium] | – | lengthens the unentrained, free-running period | –
